Assay results published in ChEMBL document CHEMBL1201862, “PubChem BioAssay data set” (2004).
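Where inhibition never reached the appropriate level, the endpoint shown equals the highest concentration tested. Otherwise, values were interpolated linearly from a five-concentration, 48-hour dose response in 96-well plates. GI50 is the concentration that inhibits growth by half.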 The source made the active and inactive calls. Rule as the data show it: active = GI50 up to about 1.1 µM and inactive = higher.

Key:
Experiment in all cases: inhibition of tumour cell growth, NCI panel, 48 h
LOX IMVI = test system: LOX IMVI
SF-295 = test system: SF-295
RXF 393 = test system: RXF 393
COLO 205 = test system: COLO 205
K562 = test system: K562
MDA-N = test system: MDA-N
HCT-116 = test system: HCT-116
MOLT-4 = test system: MOLT-4
KM12 = test system: KM12
Malme-3M = test system: Malme-3M
786-0 = test system: 786-0
A549 = test system: A549
SK-OV-3 = test system: SK-OV-3
OVCAR-4 = test system: OVCAR-4
NCI/ADR-RES = test system: NCI/ADR-RES
M14 = test system: M14
TK-10 = test system: TK-10
CCRF-CEM = test system: CCRF-CEM
BT-549 = test system: BT-549

Measured: GI50

COc1c(-c2cc(C)c(Cl)c(=O)[nH]2)c(O)c(OC)c2occc12
inactive: LOX IMVI > 100 µM | SF-295 > 100 µM | RXF 393 52.2 µM | COLO 205 > 100 µM | K562 > 100 µM | MDA-N > 100 µM | HCT-116 > 100 µM | MOLT-4 > 100 µM | KM12 > 100 µM | Malme-3M > 100 µM | 786-0 > 100 µM | A549 > 100 µM | SK-OV-3 > 100 µM | OVCAR-4 > 100 µM | NCI/ADR-RES > 100 µM | M14 > 100 µM | TK-10 42.9 µM

COc1ccc(/C(C)=C2\CCCN(Cc3ccccc3)C2)cc1
inactive: LOX IMVI 16.7 µM | SF-295 16.5 µM | RXF 393 18.6 µM | COLO 205 17.5 µM | K562 24 µM | MDA-N 18.8 µM | MOLT-4 24.4 µM | KM12 17 µM | Malme-3M 19.2 µM | 786-0 19.2 µM | A549 32 µM | SK-OV-3 29.9 µM | OVCAR-4 27.2 µM | CCRF-CEM 20.2 µM | NCI/ADR-RES 22.6 µM | M14 18.1 µM | TK-10 38.8 µM

COc1cc(CNc2nc3ccccc3n2Cc2ccccc2)cc(CN2CCOCC2)c1O
inactive: LOX IMVI 15.5 µM | SF-295 19.3 µM | RXF 393 18.2 µM | COLO 205 20.9 µM | K562 21.5 µM | MDA-N 27.4 µM | HCT-116 21.2 µM | MOLT-4 53.8 µM | KM12 34.8 µM | Malme-3M 19.1 µM | 786-0 16.7 µM | A549 47.5 µM | SK-OV-3 96.8 µM | OVCAR-4 61.4 µM | CCRF-CEM 28.3 µM | NCI/ADR-RES 23 µM | M14 24.7 µM | TK-10 23.9 µM

CCOC(=O)C(Cc1ccc2c(c1)CCC2)Cc1ccc2c(c1)CCC2
inactive: LOX IMVI 20.7 µM | SF-295 89.9 µM | RXF 393 > 100 µM | K562 26.5 µM | MDA-N 98.4 µM | HCT-116 33.3 µM | MOLT-4 16.9 µM | Malme-3M > 100 µM | 786-0 > 100 µM | A549 > 100 µM | SK-OV-3 > 100 µM | OVCAR-4 > 100 µM | CCRF-CEM 27.1 µM | NCI/ADR-RES 73.1 µM | M14 > 100 µM | TK-10 > 100 µM

COc1cccc(Nc2nc3c([nH]2)c(=O)n(C)c(=O)n3C)c1
inactive: LOX IMVI > 10 µM | SF-295 > 10 µM | RXF 393 7.01 µM | COLO 205 > 10 µM | K562 > 10 µM | MDA-N > 10 µM | MOLT-4 > 10 µM | KM12 > 10 µM | Malme-3M > 10 µM | 786-0 > 10 µM | A549 > 10 µM | SK-OV-3 > 10 µM | OVCAR-4 > 10 µM | CCRF-CEM > 10 µM | M14 > 10 µM | TK-10 > 10 µM

O=C(Nc1ccc(Cl)cc1)NS(=O)(=O)c1c(-c2ccccc2)oc2ccccc2c1=O
inactive: LOX IMVI 9.25 µM | SF-295 36.2 µM | RXF 393 > 100 µM | COLO 205 56.4 µM | K562 48 µM | MDA-N 44.7 µM | HCT-116 92.7 µM | MOLT-4 98.6 µM | KM12 36.2 µM | Malme-3M > 100 µM | 786-0 > 100 µM | A549 39 µM | SK-OV-3 > 100 µM | OVCAR-4 > 100 µM | CCRF-CEM 33.9 µM | NCI/ADR-RES 86.3 µM | TK-10 23 µM

COc1cc(C2=NNC(=O)c3ccccc3N2c2nc(-c3cccs3)nc3ccc(Br)cc23)cc(OC)c1OC
inactive: SF-295 5.06 µM | COLO 205 5.24 µM | BT-549 32.8 µM | HCT-116 12.4 µM | KM12 4.8 µM | Malme-3M 17.3 µM | 786-0 6.95 µM | A549 18.6 µM | SK-OV-3 65.6 µM | OVCAR-4 4.55 µM | CCRF-CEM 1.45 µM | NCI/ADR-RES 4.91 µM | M14 17.1 µM | TK-10 23.2 µM

O=C(O)CCC(NC(=O)c1ccc(Nc2nc3cc(C(F)(F)F)ccc3nc2C(=O)O)cc1)C(=O)O (centres undefined)
inactive: LOX IMVI > 100 µM | SF-295 > 100 µM | RXF 393 > 100 µM | COLO 205 > 100 µM | K562 > 100 µM | MDA-N > 100 µM | HCT-116 > 100 µM | MOLT-4 > 100 µM | KM12 > 100 µM | Malme-3M > 100 µM | 786-0 > 100 µM | A549 > 100 µM | CCRF-CEM > 100 µM | NCI/ADR-RES > 100 µM | M14 > 100 µM | TK-10 > 100 µM

CC(c1ccccc1)N1O[C@]12CC[C@@]1(C)C(CCCC13OCCO3)C2 (some centres undefined)
inactive: LOX IMVI 11.8 µM | SF-295 22 µM | RXF 393 23.6 µM | COLO 205 17.8 µM | HCT-116 16.1 µM | KM12 21.3 µM | Malme-3M 32.1 µM | 786-0 19.4 µM | A549 24.5 µM | SK-OV-3 > 100 µM | OVCAR-4 17.5 µM | M14 17.6 µM | TK-10 18.3 µM
